Target: human orexin 2 receptor (Homo sapiens (Human), UniProt O43614)
Test: Human orexin 2 receptor Ca2+ mobilization assay (FLIPR, PFSK cells, orexin B 100 nM)
Format: cell-based
Details: modified Cheng-Prusoff correction, read-out: OR 2 Kb

human orexin 2 receptor, sequence (O43614 whole entry): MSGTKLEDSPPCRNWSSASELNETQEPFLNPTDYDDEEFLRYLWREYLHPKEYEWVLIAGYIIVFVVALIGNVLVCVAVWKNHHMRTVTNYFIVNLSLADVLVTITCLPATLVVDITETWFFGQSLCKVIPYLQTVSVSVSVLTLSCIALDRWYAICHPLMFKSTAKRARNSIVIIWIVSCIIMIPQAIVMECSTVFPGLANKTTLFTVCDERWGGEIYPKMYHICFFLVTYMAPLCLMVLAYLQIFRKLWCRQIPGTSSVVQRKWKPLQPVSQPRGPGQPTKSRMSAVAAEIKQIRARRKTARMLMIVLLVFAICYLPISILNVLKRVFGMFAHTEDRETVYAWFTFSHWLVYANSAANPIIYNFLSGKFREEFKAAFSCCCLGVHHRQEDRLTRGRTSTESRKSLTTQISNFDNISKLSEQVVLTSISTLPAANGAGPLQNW

Row | Kb [µM] | Structure (SMILES)
1 | 0.003 | Cc1cc(C)nc(N2CC3CN(C(=O)c4cccc(F)c4-c4ccccn4)CC3C2)n1 (stereo not shown) [Example 367, (5-(4,6-Dimethylpyrimidin-2-yl)hexahydropyrrolo[3,4-c]pyrrol-2(1H)-yl)(3-fluoro-2-(pyridin-2-yl)phenyl)methanone]
2 | 0.079 | Cc1cc(C)nc(N2CC3CN(C(=O)c4nc(C)sc4-c4ccccc4F)CC3C2)n1 (stereo not shown) [Example 132, 2-(4,6-Dimethylpyrimidin-2-yl)-5-{[5-(2-fluorophenyl)-2-methyl-1,3-thiazol-4-yl]carbonyl}octahydropyrrolo[3,4-c]pyrrole]
3 | 0.007 | Cc1nc(N2CC3CN(C(=O)c4ccccc4-n4nccn4)CC3C2)ncc1F (stereo not shown) [Example 290, 2-(5-Fluoro-4-methylpyrimidin-2-yl)-5-{[2-(2H-1,2,3-triazol-2-yl)phenyl]carbonyl}octahydropyrrolo[3,4-c]pyrrole]
4 | 0.063 | O=C(c1ccccc1-c1cccs1)N1CC2CN(c3nc4ccccc4o3)CC2C1 (stereo not shown) [Example 139, 2-{5-[(2-Thiophen-2-ylphenyl)carbonyl]hexahydropyrrolo[3,4-c]pyrrol-2(1H)-yl}-1,3-benzoxazole]
5 | 0.025 | Cc1cncc(N2CC3CN(C(=O)c4ccccc4-n4nccn4)CC3C2)n1 (stereo not shown) [Example 211, [5-(6-Methyl-pyrazin-2-yl)-hexahydro-pyrrolo[3,4-c]pyrrol-2-yl]-(2-[1,2,3]triazol-2-yl-phenyl)-methanone]
6 | 0.003 | Cc1nc(N2CC3CN(C(=O)c4ccccc4-c4ncn(C)n4)CC3C2)nc(C)c1C (stereo not shown) [Example 311, 2-{[2-(1-Methyl-1H-1,2,4-triazol-3-yl)phenyl]carbonyl}-5-(4,5,6-trimethylpyrimidin-2-yl)octahydropyrrolo[3,4-c]pyrrole]
7 | 0.004 | Cc1nc(N2CC3CN(C(=O)c4cccc(F)c4-c4ncccn4)CC3C2)nc(C)c1C (stereo not shown) [Example 239, (3-Fluoro-2-(pyrimidin-2-yl)phenyl)(5-(4,5,6-trimethylpyrimidin-2-yl)hexahydropyrrolo[3,4-c]pyrrol-2(1H)-yl)methanone]
8 | 0.007 | Cc1cc(C)nc(N2CC3CN(C(=O)c4cccc(F)c4I)CC3C2)n1 (stereo not shown) [Example 232, (5-(4,6-Dimethylpyrimidin-2-yl)hexahydropyrrolo[3,4-c]pyrrol-2(1H)-yl)(3-fluoro-2-iodophenyl)methanone]
9 | 0.1 | COc1cc(OC)nc(N2CC3CN(C(=O)c4cc(C)ccc4-n4nccn4)CC3C2)n1 (stereo not shown) [Example 129, 2-(4,6-Dimethoxypyrimidin-2-yl)-5-{[5-methyl-2-(2H-1,2,3-triazol-2-yl)phenyl]carbonyl}octahydropyrrolo[3,4-c]pyrrole]
10 | 0.005 | COc1ccc(C(=O)N2CC3CN(c4nc(C)c(F)c(C)n4)CC3C2)c(-n2nccn2)c1 (stereo not shown) [Example 379, 2-(5-Fluoro-4,6-dimethylpyrimidin-2-yl)-5-{[4-methoxy-2-(2H-1,2,3-triazol-2-yl)phenyl]carbonyl}octahydropyrrolo[3,4-c]pyrrole]
11 | 0.126 | Cc1cc(N2CC3CN(C(=O)c4ccccc4-c4ccccc4)CC3C2)nc2ccccc12 (stereo not shown) [Example 178, 2-[5-(Biphenyl-2-ylcarbonyl)hexahydropyrrolo[3,4-c]pyrrol-2(1H)-yl]-4-methylquinoline]
12 | 0.011 | Cc1nc(N2CC3CN(C(=O)c4ccccc4-c4ncn(C)n4)CC3C2)ncc1F (stereo not shown) [Example 312, 2-(5-Fluoro-4-methylpyrimidin-2-yl)-5-{[2-(1-methyl-1H-1,2,4-triazol-3-yl)phenyl]carbonyl}octahydropyrrolo[3,4-c]pyrrole]
13 | 0.032 | Cc1cnc(C)c(N2CC3CN(C(=O)c4cc(F)ccc4-c4ncccn4)CC3C2)n1 (stereo not shown) [Example 212, [5-(3,6-Dimethyl-pyrazin-2-yl)-hexahydro-pyrrolo[3,4-c]pyrrol-2-yl]-(5-fluoro-2-pyrimidin-2-yl-phenyl)-methanone]
14 | 0.02 | Cc1ccc(-n2nccn2)c(C(=O)N2CC3CN(c4nccc(-c5ccccc5)n4)CC3C2)c1 (stereo not shown) [Example 127, 2-{[5-Methyl-2-(2H-1,2,3-triazol-2-yl)phenyl]carbonyl}-5-(4-phenylpyrimidin-2-yl)octahydropyrrolo[3,4-c]pyrrole]
15 | 0.013 | CN(C)c1nc(N2CC3CN(C(=O)c4c(F)cccc4-c4ncccn4)CC3C2)cc(C(F)(F)F)n1 (stereo not shown) [Example 116, 4-{5-[(2-Fluoro-6-pyrimidin-2-ylphenyl)carbonyl]hexahydropyrrolo[3,4-c]pyrrol-2(1H)-yl}-N,N-dimethyl-6-(trifluoromethyl)pyrimidin-2-amine]
16 | 0.016 | CN(C)c1cc(N2CC3CN(C(=O)c4ccccc4-n4nccn4)CC3C2)nc(C(F)(F)F)n1 (stereo not shown) [Example 2, N,N-Dimethyl-6-[5-{[2-(2H-1,2,3-triazol-2-yl)phenyl]carbonyl}hexahydropyrrolo[3,4-c]pyrrol-2(1H)-yl]-2-(trifluoromethyl)pyrimidin-4-amine]
17 | 0.032 | Cc1cc(C)nc(N2CC3CN(C(=O)c4sccc4-c4ccccc4)CC3C2)n1 (stereo not shown) [Example 12, 2-(4,6-Dimethylpyrimidin-2-yl)-5-[(3-phenylthiophen-2-yl)carbonyl]octahydropyrrolo[3,4-c]pyrrole]

Row | Kb [µM] | Structure (SMILES)
18 | 0.063 | CCOc1cccc(N2CC3CN(C(=O)c4ccccc4-n4nccn4)CC3C2)n1 (stereo not shown) [Example 147, 2-(6-Ethoxypyridin-2-yl)-5-{[2-(2H-1,2,3-triazol-2-yl)phenyl]carbonyl}octahydro pyrrolo[3,4-c]pyrrole]
19 | 0.02 | Cc1cc(N2CC3CN(C(=O)c4cc(F)ccc4-c4ncccn4)CC3C2)nc(C(F)(F)F)n1 (stereo not shown) [Example 204, (5-Fluoro-2-pyrimidin-2-yl-phenyl)-[5-(6-methyl-2-trifluoromethyl-pyrimidin-4-yl)-hexahydro-pyrrolo[3,4-c]pyrrol-2-yl]-methanone]
20 | 0.04 | CCOc1ccc2ccccc2c1C(=O)N1CC2CN(c3nccc(OC)n3)CC2C1 (stereo not shown) [Example 56, 2-[(2-Ethoxynaphthalen-1-yl)carbonyl]-5-(4-methoxypyrimidin-2-yl)octahydropyrrolo[3,4-c]pyrrole]
21 | 0.002 | COc1ccc(C(=O)N2CC3CN(c4ncc(Cl)c(C)n4)CC3C2)c(-n2nccn2)c1 (stereo not shown) [Example 378, 2-(5-Chloro-4-methylpyrimidin-2-yl)-5-{[4-methoxy-2-(2H-1,2,3-triazol-2-yl)phenyl]carbonyl}octahydropyrrolo[3,4-c]pyrrole]
22 | 0.005 | COc1ccc(C(=O)N2CC3CN(c4ncc(C)c(C)n4)CC3C2)c(-n2nccn2)c1 (stereo not shown) [Example 380, 2-(4,5-Dimethylpyrimidin-2-yl)-5-{[4-methoxy-2-(2H-1,2,3-triazol-2-yl)phenyl]carbonyl}octahydropyrrolo[3,4-c]pyrrole]
23 | 0.032 | CCOc1ccc2ccccc2c1C(=O)N1CC2CN(c3cnc4ccccc4n3)CC2C1 (stereo not shown) [Example 145, 2-{5-[(2-Ethoxynaphthalen-1-yl)carbonyl]hexahydropyrrolo[3,4-c]pyrrol-2(1H)-yl}quinoxaline]
24 | 0.008 | Cc1cc(N2CC3CN(C(=O)c4c(F)cccc4-c4ncccn4)CC3C2)nc(C(F)(F)F)n1 (stereo not shown) [Example 117, 2-[(2-Fluoro-6-pyrimidin-2-ylphenyl)carbonyl]-5-[6-methyl-2-(trifluoromethyl)pyrimidin-4-yl]octahydropyrrolo[3,4-c]pyrrole]
25 | 0.01 | Cc1cc(N2CC3CN(C(=O)c4c(F)cccc4-n4nccn4)CC3C2)nc(C(F)(F)F)n1 (stereo not shown) [Example 98, 2-{[2-Fluoro-6-(2H-1,2,3-triazol-2-yl)phenyl]carbonyl}-5-[6-methyl-2-(trifluoromethyl)pyrimidin-4-yl]octahydropyrrolo[3,4-c]pyrrole]
26 | 0.016 | CN(C)c1nc(N2CC3CN(C(=O)c4ccc(F)cc4-n4nccn4)CC3C2)cc(C(F)(F)F)n1 (stereo not shown) [Example 111, [5-(2-Dimethylamino-6-trifluoromethyl-pyrimidin-4-yl)-hexahydro-pyrrolo[3,4-c]pyrrol-2-yl]-(4-fluoro-2-[1,2,3]triazol-2-yl-phenyl)-methanone]
27 | 0.004 | Cc1cc(C)nc(N2CC3CN(C(=O)c4cccc(F)c4-c4ncccc4F)CC3C2)n1 (stereo not shown) [Example 375, (5-(4,6-Dimethylpyrimidin-2-yl)hexahydropyrrolo[3,4-c]pyrrol-2(1H)-yl)(3-fluoro-2-(3-fluoropyridin-2-yl)phenyl)methanone]
28 | 0.501 | COc1ccc(C(=O)N2CC3CN(c4nc5ccc(Cl)cc5s4)CC3C2)c(OC)c1 (stereo not shown) [Example 163, 6-Chloro-2-{5-[(2,4-dimethoxyphenyl)carbonyl]hexahydropyrrolo[3,4-c]pyrrol-2(1H)-yl}-1,3-benzothiazole]
29 | 0.04 | Cc1cc(C)nc(N2CC3CN(C(=O)c4cccc5ccccc45)CC3C2)n1 (stereo not shown) [Example 93, 2-(4,6-Dimethylpyrimidin-2-yl)-5-(naphthalen-1-ylcarbonyl)octahydropyrrolo[3,4-c]pyrrole]
30 | 0.007 | COc1ccc(-n2nccn2)c(C(=O)N2CC3CN(c4nc(C)c(C)c(C)n4)CC3C2)c1 (stereo not shown) [Example 241, (5-Methoxy-2-(2H-1,2,3-triazol-2-yl)phenyl)(5-(4,5,6-trimethylpyrimidin-2-yl)hexahydropyrrolo[3,4-c]pyrrol-2(1H)-yl)methanone]
31 | 0.013 | Cc1cc(C)nc(N2CC3CN(C(=O)c4ccccc4-c4nc(C)no4)CC3C2)n1 (stereo not shown) [Example 306, 2-(4,6-Dimethylpyrimidin-2-yl)-5-{[2-(3-methyl-1,2,4-oxadiazol-5-yl)phenyl]carbonyl}octahydropyrrolo[3,4-c]pyrrole]
32 | 0.02 | Cc1ccc(-c2ncccn2)c(C(=O)N2CC3CN(c4cc(C)nc(C(F)(F)F)n4)CC3C2)c1 (stereo not shown) [Example 112, 2-[(5-Methyl-2-pyrimidin-2-ylphenyl)carbonyl]-5-[6-methyl-2-(trifluoromethyl)pyrimidin-4-yl]octahydropyrrolo[3,4-c]pyrrole]
33 | 0.011 | O=C(c1c(F)cccc1-n1nccn1)N1CC2CN(c3cnc4cc(F)c(F)cc4n3)CC2C1 (stereo not shown) [Example 246, (5-(6,7-Difluoroquinoxalin-2-yl)hexahydropyrrolo[3,4-c]pyrrol-2(1H)-yl)(2-fluoro-6-(2H-1,2,3-triazol-2-yl)phenyl)methanone]
34 | 0.02 | Cc1cnc(C)c(N2CC3CN(C(=O)c4ccccc4-c4cccs4)CC3C2)n1 (stereo not shown) [Example 63, 2-(3,6-Dimethylpyrazin-2-yl)-5-[(2-thiophen-2-ylphenyl)carbonyl]octahydro-pyrrolo[3,4-c]pyrrole]

Source: patent US9586962B2, “Disubstituted octahydropyrrolo [3,4-C] pyrroles as orexin receptor modulators” (Janssen Pharmaceutica NV, priority 2011, dated 2017)
